Experimental findings from ChEMBL document CHEMBL1142127, “Neuroprotective principles from Gastrodia elata” (J Nat Prod, 2007) are described below.

The source made the active and inactive calls. The rule behind the calls is not given here.

Assay [1] relates to PC-12. As to the kind of experiment: Prevention of serum deprivation-induced PC12 cell apoptosis by MTT assay. As to conditions: Rattus norvegicus. The format is functional, cell-based.
The target of assay [2] is Adenosine receptor A2a (Rattus norvegicus, UniProt P30543). As to the kind of experiment: Binding affinity to adenosine A2A receptor in rat brain striatum. The assay is classed as tissue-based.
Adenosine receptor A2a, sequence (P30543 whole entry): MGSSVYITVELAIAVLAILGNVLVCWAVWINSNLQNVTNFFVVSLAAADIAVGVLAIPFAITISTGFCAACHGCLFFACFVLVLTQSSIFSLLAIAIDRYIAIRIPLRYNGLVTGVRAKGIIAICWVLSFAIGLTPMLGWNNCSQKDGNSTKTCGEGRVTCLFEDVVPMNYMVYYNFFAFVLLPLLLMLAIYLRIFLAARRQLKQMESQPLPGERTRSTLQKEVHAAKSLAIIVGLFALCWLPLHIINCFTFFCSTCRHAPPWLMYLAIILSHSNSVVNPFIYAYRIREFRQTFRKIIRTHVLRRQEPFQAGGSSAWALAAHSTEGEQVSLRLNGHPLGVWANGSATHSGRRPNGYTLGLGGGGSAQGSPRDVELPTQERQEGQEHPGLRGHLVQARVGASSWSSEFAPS
Assay [3] has as its system PC-12. Nature of the assay: Prevention of serum deprivation-induced PC12 cell apoptosis at > 100 uM by MTT assay. The format is functional, cell-based. As to conditions: Rattus norvegicus.
The subject of assay [4] is PC-12. As to the kind of experiment: Prevention of serum deprivation-induced PC12 cell apoptosis at 100 uM by MTT assay. The format is functional, Rattus norvegicus.

`Oc1ccc(CSCc2ccc(O)cc2)cc1` gave a concentration giving a half-maximal response (EC50) in assay [1] of 7.2 µM. In assay [2], this molecule displayed an IC50 of 42.9 µM and a Ki of 24.1 µM.

With `OCc1ccc(O[C@@H]2O[C@H](CO)[C@@H](O)[C@H](O)[C@H]2O)cc1`, the outcome in assay [3] was inactive.

On to `Nc1ncnc2c1ncn2[C@@H]1O[C@H](CO)[C@@H](O)[C@H]1O` [ADENOSINE], for which the Activity in assay [4] was found to be 80%.

For `C[C@H]1O[C@@H](Oc2ccc(COC(=O)CC(O)(CC(=O)OCc3ccc(O[C@@H]4O[C@H](CO)[C@@H](O)[C@H](O)[C@H]4O)cc3)C(=O)Oc3ccc(O[C@H]4O[C@H](CO)[C@@H](O)[C@H](O)[C@H]4O)cc3)cc2)[C@H](O)[C@@H](O)[C@@H]1O` (some centres undefined), the outcome in assay [3] was inactive.

As to `OC[C@H]1O[C@@H](n2cnc3c(NCc4ccc(O)cc4)ncnc32)[C@H](O)[C@@H]1O`, the EC50 in assay [1] was determined as 0.037 µM. In assay [2], the IC50 came out at 4.66 µM and the inhibition constant (Ki) amounted to 2.62 µM.
